Reference: patent US20260248720A1, “COMPOSITIONS SUITABLE FOR THE ADMINISTRATION OF CREATINE ESTERS” (priority 2023, published 2026)

Test: Chemical stability of DCE in the particulate emulsion (HPLC/UV)
Format: physicochemical
Procedure: The chemical stability of DCE in the particulate emulsion was monitored using an HPLC/UV method at 4° C. and at room temperature.

[1] = extrapolation with the slope of the decay

For CCCCCCCCCCCCOC(=O)CN(C)C(=N)N [DCE, dodecyl creatine ester], the “Calculation of remaining content (%) after 1 month of storage at room temperature” value [1] was 99%, the “Estimation of remaining content after 18 months of storage at 4° C.” value [1] was “more than 95%” and the “Period over which DCE is stable” value (storage at room temperature (20-25° C.)) was “more than 20 days”. For the same molecule, the “Period over which DCE is stable” value (storage in the fridge (4° C.)) was “more than 3 months”.
